According to ChEMBL document CHEMBL1146734, “Estrogen receptor ligands. Part 3: The SAR of dihydrobenzoxathiin SERMs” (Bioorg Med Chem Lett, 2004):
pIC50: −log10 of the molar value.

Tests used:
Estrogen receptor [1] = target: T1, Estrogen receptor (Homo sapiens, UniProt P03372); assay: Binding affinity towards human estrogen receptor alpha
T1 sequence (P03372 whole entry): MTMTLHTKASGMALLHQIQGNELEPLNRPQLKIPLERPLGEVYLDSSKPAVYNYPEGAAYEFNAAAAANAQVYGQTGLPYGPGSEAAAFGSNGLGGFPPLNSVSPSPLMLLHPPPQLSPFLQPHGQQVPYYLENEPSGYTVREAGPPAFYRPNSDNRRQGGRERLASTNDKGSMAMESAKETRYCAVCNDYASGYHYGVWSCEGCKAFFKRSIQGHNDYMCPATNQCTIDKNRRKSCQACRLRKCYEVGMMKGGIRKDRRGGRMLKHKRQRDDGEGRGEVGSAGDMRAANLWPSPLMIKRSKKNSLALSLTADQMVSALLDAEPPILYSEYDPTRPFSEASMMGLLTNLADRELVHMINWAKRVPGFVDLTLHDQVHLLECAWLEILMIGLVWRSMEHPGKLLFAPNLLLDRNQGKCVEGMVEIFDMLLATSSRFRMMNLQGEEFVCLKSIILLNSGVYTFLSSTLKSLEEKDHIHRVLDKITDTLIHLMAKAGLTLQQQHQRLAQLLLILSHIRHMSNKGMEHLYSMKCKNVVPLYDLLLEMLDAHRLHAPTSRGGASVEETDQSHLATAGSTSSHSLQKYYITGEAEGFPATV

Estrogen receptor beta = Estrogen receptor beta (Homo sapiens, UniProt Q92731); assay: Binding affinity towards human estrogen receptor beta (ERbeta)
Estrogen receptor [2] = target: T2, Estrogen receptor (Homo sapiens, UniProt Q92731+P03372); assay: […] inhibition of human ERalpha/ERbeta co-expressed in HEK 293 cells; 127/3316; format: functional; details: hek293
Estrogen receptor [3] = target: T2, Estrogen receptor; assay: In vivo inhibition of human ERalpha/ERbeta co-expressed in HEK 293 cells; format: functional; details: hek293
Estrogen receptor [4] = target: T2, Estrogen receptor; assay: […] inhibition of human ERalpha/ERbeta co-expressed in HEK 293 cells; 21/840; format: functional; details: hek293
Estrogen receptor [5] = target: T2, Estrogen receptor; assay: […] inhibition of human ERalpha/ERbeta co-expressed in HEK 293 cells; 137/1375; format: functional; details: hek293
Estrogen receptor [6] = target: T2, Estrogen receptor; assay: In vitro inhibition of human ERalpha/ERbeta expressed in HEK 293 cells; 76/322; details: hek293

Estrogen receptor beta, sequence (Q92731 whole entry): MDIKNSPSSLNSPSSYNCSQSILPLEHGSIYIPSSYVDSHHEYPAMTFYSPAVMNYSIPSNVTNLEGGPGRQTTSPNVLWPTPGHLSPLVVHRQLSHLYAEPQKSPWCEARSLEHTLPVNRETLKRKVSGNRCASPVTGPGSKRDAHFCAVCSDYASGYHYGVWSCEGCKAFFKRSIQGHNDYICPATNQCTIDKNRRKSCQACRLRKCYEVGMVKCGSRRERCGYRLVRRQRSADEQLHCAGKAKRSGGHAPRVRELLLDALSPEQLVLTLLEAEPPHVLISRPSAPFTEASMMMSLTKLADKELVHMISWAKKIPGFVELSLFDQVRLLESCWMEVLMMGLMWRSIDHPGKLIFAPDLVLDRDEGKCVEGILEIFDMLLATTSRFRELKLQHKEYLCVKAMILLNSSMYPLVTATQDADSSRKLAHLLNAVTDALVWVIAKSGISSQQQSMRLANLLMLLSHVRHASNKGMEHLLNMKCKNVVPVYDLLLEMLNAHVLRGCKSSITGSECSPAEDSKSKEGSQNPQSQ

Structure (SMILES) | pIC50 (Estrogen receptor [1]) | pIC50 (Estrogen receptor beta) | other results
CC(C)[C@H]1Sc2cc(O)ccc2O[C@H]1c1ccc(OCCN2CCCCC2)cc1 | 8.15 | 6.98 | IC50 (Estrogen receptor [2]): 127 nM
Oc1ccc(C[C@H]2Sc3cc(O)ccc3O[C@H]2c2ccc(OCCN3CCCCC3)cc2)cc1 | 8.57 | 6.51 | IC50 (Estrogen receptor [3]): 14 nM
Oc1ccc2c(c1)S[C@H](CC1CCCC1)[C@H](c1ccc(OCCN3CCCCC3)cc1)O2 | 8.52 | 7.47 | –
Oc1ccc2c(c1)S[C@H](c1ccco1)[C@H](c1ccc(OCCN3CCCCC3)cc1)O2 | 7.46 | 6.44 | –
Oc1ccc2c(c1)S[C@H](C1CCCCCC1)[C@H](c1ccc(OCCN3CCCCC3)cc1)O2 | 8.12 | 7.55 | IC50 (Estrogen receptor [4]): 21 nM
CC(C)(C)[C@H]1Sc2cc(O)ccc2O[C@H]1c1ccc(OCCN2CCCCC2)cc1 | 7.96 | 7.37 | IC50 (Estrogen receptor [5]): 137 nM
Oc1ccc2c(c1)S[C@H](C1CCCC1)[C@H](c1ccc(OCCN3CCCCC3)cc1)O2 | 8.60 | 7.51 | –
Oc1ccc2c(c1)S[C@H](c1cccnc1)[C@H](c1ccc(OCCN3CCCCC3)cc1)O2 | 6.27 | 5.08 | –
Oc1ccc2c(c1)S[C@H](c1ccncc1)[C@H](c1ccc(OCCN3CCCCC3)cc1)O2 | 6.31 | 5.09 | –
Oc1ccc2c(c1)S[C@H](c1cccs1)[C@H](c1ccc(OCCN3CCCCC3)cc1)O2 | 8.06 | 6.79 | –
Oc1ccc2c(c1)S[C@H](C1CCCCC1)[C@H](c1ccc(OCCN3CCCCC3)cc1)O2 | 8.59 | 7.80 | –
Oc1ccc2c(c1)S[C@H](Cc1ccccc1)[C@H](c1ccc(OCCN3CCCCC3)cc1)O2 | 8.13 | 7.22 | IC50 (Estrogen receptor [3]): 61 nM
CC(C)C[C@H]1Sc2cc(O)ccc2O[C@H]1c1ccc(OCCN2CCCCC2)cc1 | 8.52 | 7.42 | IC50 (Estrogen receptor [6]): 76 nM
Oc1ccc2c(c1)S[C@H](CC1CCCCC1)[C@H](c1ccc(OCCN3CCCCC3)cc1)O2 | 8.41 | 7.40 | –
